The record followed here is US9321774B2, “Pyrrolobenzodiazepines” (MEDIMMUNE LIMITED, priority 2012, dated 2016).

In brackets after ≈: the same amount, converted by molar mass. Where two headings read alike, the source gives them in different places. Bounds are passed on as bounds.

What all share (assay): CLSI broth microplate assay, MIC
Format in all cases: cell-based

Experiment [1] relates to MRSA strain BB568. The note with it: Staphylococcus aureus, read-out: Minimum inhibitory concentration (MIC mg/L) BB568.
The subject of experiment [2] is community-associated MRSA isolate USA300. The note with it: Staphylococcus aureus, read-out: Minimum inhibitory concentration (MIC mg/L) USA300.
Experiment [3] deals with E. faecium VRE10. The note with it: Enterococcus faecium.
Experiment [4] has as its system MRSA strain EMRSA-15. The note with it: Staphylococcus aureus, read-out: Minimum inhibitory concentration (MIC mg/L) EMRSA-15.
Experiment [5] concerns E. faecalis VRE1. The note with it: Enterococcus faecalis.
Experiment [6] concerns MRSA strain EMRSA-16. The note with it: Staphylococcus aureus, read-out: Minimum inhibitory concentration (MIC mg/L) EMRSA-16.
Experiment [7] relates to S. aureus VISA strain Mu50. The note with it: Staphylococcus aureus, read-out: Minimum inhibitory concentration (MIC mg/L) Mu50.
Where [8] appears, read: VRE10, read-out: Minimum inhibitory concentration (MIC mg/L) VRE10.
Where [9] appears, read: VRE1, read-out: Minimum inhibitory concentration (MIC mg/L) VRE1.
[10] abbreviates: BB568, Mueller-Hinton broth, 37° C.
[11] abbreviates: VRE10, Mueller-Hinton broth, 37° C., read-out: Minimum inhibitory concentration (MIC mg/L) VRE10.
Where [12] appears, read: EMRSA-15, Mueller-Hinton broth, 37° C.
Where [13] appears, read: VRE1, Mueller-Hinton broth, 37° C., read-out: Minimum inhibitory concentration (MIC mg/L) VRE1.
Setting [14] is: EMRSA-16, Mueller-Hinton broth, 37° C.
The mark [15] stands for this setting: Mu50, Mueller-Hinton broth, 37° C.

For `COc1cc2c(cc1OCCCC(=O)Nc1ccc(-c3cc(C(=O)Nc4ccc(N5CCOCC5)nc4)n(C)c3)cc1)N=C[C@@H]1CCCN1C2=O` [Compound 53, (S)-4-(4-(4-((7-methoxy-5-oxo-2,3,5,11a-tetrahydro-1H-benzo[e]pyrrolo[1,2-a][1,4]diazepin-8-yl)oxy)butanamido)phenyl)-1-methyl-N-(6-morpholinopyridin-3-yl)-1H-pyrrole-2-carboxamide], the MIC in experiment [1] was 4 mg/L (≈ 5.78 µM); in experiment [2], 4 mg/L (≈ 5.78 µM); in experiment [3] (setting [8]), 0.5 mg/L (≈ 0.723 µM); in experiment [4] it was 1 mg/L (≈ 1.45 µM); in experiment [5] (setting [9]) it was 1 mg/L (≈ 1.45 µM); in experiment [6], 2 to 4 mg/L (≈ 2.89 to 5.78 µM). The MIC in experiment [7] amounted to 2 mg/L (≈ 2.89 µM).
Take `COC(=O)c1cc(-c2ccc(NC(=O)c3cc(-c4ccc(NC(=O)CCCOc5cc6c(cc5OC)C(=O)N5CCC[C@H]5C=N6)cc4)co3)cc2)cn1C` [Compound 56, (S)-methyl 4-(4-(4-(4-(4-((7-methoxy-5-oxo-2,3,5,11a-tetrahydro-1H-benzo[e]pyrrolo[1,2-a][1,4]diazepin-8-yl)oxy)butanamido)phenyl)furan-2-carboxamido)phenyl)-1-methyl-1H-pyrrole-2-carboxylate]: the MIC in experiment [1] stood at 0.5 mg/L (≈ 0.685 µM); in experiment [2], 1 mg/L (≈ 1.37 µM); in experiment [3] (setting [8]) it was 0.25 mg/L (≈ 0.343 µM); in experiment [4], 0.25 mg/L (≈ 0.343 µM); in experiment [5] (setting [9]) it was 0.5 mg/L (≈ 0.685 µM); in experiment [6], 0.5 mg/L (≈ 0.685 µM). Also, the MIC in experiment [7] was 0.5 mg/L (≈ 0.685 µM).
On to `COC(=O)c1cc(NC(=O)c2cc(-c3ccc(NC(=O)CCCOc4cc5c(cc4OC)C(=O)N4CCC[C@H]4C=N5)cc3)co2)cn1C` [Compound 54, (S)-methyl 4-(4-(4-(4-((7-methoxy-5-oxo-2,3,5,11a-tetrahydro-1H-benzo[e]pyrrolo[1,2-a][1,4]diazepin-8-yl)oxy)butanamido)phenyl)furan-2-carboxamido)-1-methyl-1H-pyrrole-2-carboxylate], for which the MIC in experiment [1] (setting [10]) was 0.125 mg/L (≈ 0.191 µM); in experiment [2], 0.06 mg/L (≈ 0.0918 µM); in experiment [3] (setting [11]), less than 0.03 mg/L; in experiment [4] (setting [12]), less than 0.03 mg/L; in experiment [5] (setting [13]), 0.06 mg/L (≈ 0.0918 µM); in experiment [6] (setting [14]), 0.06 mg/L (≈ 0.0918 µM). In experiment [7] (setting [15]), the MIC was found to be 0.03 mg/L (≈ 0.0459 µM).
For the compound `COc1cc2c(cc1OCCCC(=O)Nc1cn(C)c(C(=O)Nc3ccc(OCCN4CCOCC4)cc3)n1)N=C[C@@H]1CCCN1C2=O` [Compound 39, (S)-4-(4-((7-methoxy-5-oxo-2,3,5,11a-tetrahydro-1H-benzo[e]pyrrolo[1,2-a][1,4]diazepin-8-yl)oxy)butanamido)-1-methyl-N-(4-(2-morpholinoethoxyl)phenyl)-1H-imidazole-2-carboxamide], the MIC in experiment [1] (setting [10]) was 0.25 to 0.5 mg/L (≈ 0.379 to 0.758 µM); in experiment [2], 0.5 mg/L (≈ 0.758 µM); in experiment [3] (setting [11]), 0.5 mg/L (≈ 0.758 µM); in experiment [4] (setting [12]), 0.25 mg/L (≈ 0.379 µM); in experiment [5] (setting [13]), 0.125 mg/L (≈ 0.189 µM); in experiment [6] (setting [14]), 0.25 mg/L (≈ 0.379 µM). Further, in experiment [7] (setting [15]), the MIC was found to be 0.125 mg/L (≈ 0.189 µM).
